Data from the supplement of paper PMC10307832.

Assays:
Assay in all cases: relative viability (nuclei count vs DMSO), 5 days (fraction); higher = more cells survive
[1] = compound: O=C(NCCCNc1nc(Nc2cccc(NC(=O)N3CCCC3)c2)ncc1I)c1cccs1 [BX 795] + CC(=O)c1c(C)c2cnc(Nc3ccc(N4CCNCC4)cn3)nc2n(C2CCCC2)c1=O [Palbociclib] (partner 0.5 µM)
How it was run: (§1)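 The day after seeding in 1536-well plates, lung cancer cell lines were treated by pin tool with a single drug, or with a fixed anchor-drug dose together with five library-drug doses (not always all listed) in √10 steps. After 5 days, a combined fix-and-stain solution (final 0.05% Triton X-100, 1% formaldehyde, 1 ug/ml Hoechst) was added. Nuclei counted on 4× images gave relative viability as treated counts over vehicle counts, reported as the median of duplicate plates.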

[2] = compound: O=C(NCCCNc1nc(Nc2cccc(NC(=O)N3CCCC3)c2)ncc1I)c1cccs1 [BX 795] + CC(C)C[C@H](NC(=O)[C@H](Cc1ccccc1)NC(=O)c1cnccn1)B(O)O [Bortezomib] (partner 0.002 µM)
How it was run: as §1

[3] = compound: O=C(NCCCNc1nc(Nc2cccc(NC(=O)N3CCCC3)c2)ncc1I)c1cccs1 [BX 795] + CC1(C)CCC(c2ccc(Cl)cc2)=C(CN2CCN(c3ccc(C(=O)NS(=O)(=O)c4ccc(N[C@H](CCN5CCOCC5)CSc5ccccc5)c(S(=O)(=O)C(F)(F)F)c4)cc3)CC2)C1 [Navitoclax] (partner 0.5 µM)
How it was run: as §1

[4] = compound: O=C(NCCCNc1nc(Nc2cccc(NC(=O)N3CCCC3)c2)ncc1I)c1cccs1 [BX 795] + COc1cccc2cc(-c3nc([C@H]4CC[C@H](C(=O)O)CC4)n4ncnc(N)c34)[nH]c12 [OSI-027] (partner 0.5 µM)
How it was run: as §1

[5] = compound: O=C(NCCCNc1nc(Nc2cccc(NC(=O)N3CCCC3)c2)ncc1I)c1cccs1 [BX 795] + Nc1ncn([C@H]2C[C@H](O)[C@@H](CO)O2)c(=O)n1 [Decitabine] (partner 2 µM)
How it was run: as §1

Cell Line	relative viability ([1]; first compound 0.04 µM)	relative viability ([1]; first compound 0.1265 µM)	relative viability ([1]; first compound 0.4 µM)	relative viability ([1]; first compound 1.265 µM)	relative viability ([2]; first compound 0.04 µM)	relative viability ([2]; first compound 0.1265 µM)	relative viability ([2]; first compound 0.4 µM)	relative viability ([2]; first compound 1.265 µM)	relative viability ([3]; first compound 0.04 µM)	relative viability ([3]; first compound 0.1265 µM)	relative viability ([3]; first compound 0.4 µM)	relative viability ([3]; first compound 1.265 µM)	relative viability ([4]; first compound 0.04 µM)	relative viability ([4]; first compound 0.1265 µM)	relative viability ([4]; first compound 0.4 µM)	relative viability ([4]; first compound 1.265 µM)	relative viability ([5]; first compound 0.04 µM)	relative viability ([5]; first compound 0.1265 µM)	relative viability ([5]; first compound 0.4 µM)	relative viability ([5]; first compound 1.265 µM)
201T	0.333	0.34	0.376	0.405	1.12	1.08	1.18	1.11	1.18	1.21	1.24	1.21	0.946	0.675	0.775	0.824	0.886	0.871	1	0.867
A549									1.19	1.24	1.47	0.739					0.332	0.289	0.329	0.282
A-427	0.562	0.482	0.508	0.502	0.972	0.964	1.02	0.866	0.97	1.02	1.01	0.788	0.514	0.476	0.51	0.299	0.588	0.588	0.545	0.516
ABC-1	0.768		0.765	0.727	0.392	0.299	0.332	0.291					0.577	0.512	0.459	0.33	1.03		1.3	1.49
BEN	0.454	0.436	0.49	0.491	0.805	0.783	0.842	0.873	0.0771	0.0586	0.0606	0.0858	0.264	0.297	0.257	0.26	0.886	0.709	0.673	0.672
CAL-12T	0.473	0.55	0.298	0.218	0.954	0.929	1.04	0.623	1.08	1.23	1.25	0.497	0.726	0.834	0.669	0.186				
COR-L23	0.359	0.287	0.253	0.191	1.1	1.02	0.916	0.979	1.15	1.02	1.02	0.524	0.843	0.769	0.82	0.501	0.53	0.42	0.516	0.319
COR-L 105	0.453	0.338	0.401	0.314	0.586	0.577	0.613	0.327	0.795	0.583	0.652	0.39	0.659	0.665	0.582	0.466	0.636	0.589	0.507	0.603
ChaGo-K-1	0.889	0.929	0.928	0.705	1.02	0.916	0.977	0.91	0.817	0.919	0.933	0.982	0.632	0.553	0.548	0.432	0.535	0.544	0.538	0.398
EKVX	0.51	0.483	0.381	0.365	1.15	1.09	0.99	0.886	0.703	1.02	0.851	0.896	0.657	0.649	0.63	0.603	0.356	0.336	0.382	0.377
EMC-BAC-2	0.536	0.52	0.512	0.432	1.08	1.08	1.13	1.06	1.18	1.24	1.24	0.906	0.413	0.404	0.377	0.273	1.02	1.03	0.962	0.736
EPLC-272H	0.352	0.419	0.317	0.387	1.02		0.857	0.824	1.14		1.27	1.12	0.297	0.291	0.304	0.336	0.356	0.472	0.374	0.305
H3255	0.323	0.276	0.314	0.316	0.731	0.816	1.11	0.66	0.663	0.484	0.694	0.527	0.581	0.605	0.629	0.51	0.647	0.819	0.664	0.616
HARA	0.237	0.183	0.201	0.208	1.12	1.03	1.1	1.06	1.13	1.13	1.24	1.13	0.598	0.494	0.701	0.41	0.618	0.578	0.684	0.553
HCC-15	0.766	0.712	0.663	0.616	0.969	1.02	0.99	0.778	0.751	0.7	0.756	0.53	0.627	0.755	0.717	0.474	0.585	0.646	0.684	0.448
HCC-44	0.997	0.968	1.05	1.07	0.818	0.929	1.1	0.772	0.872	1.05	1.02	0.708	0.483	0.472	0.564	0.45	0.952	0.983	1.07	1
HCC-78	0.56	0.437	0.49	0.433	0.735	0.487	0.438	0.41	0.857	0.926	0.792	0.718	0.363	0.369	0.393	0.363	0.913	0.664	0.825	0.653
HCC-366	0.477	0.362	0.289	0.415	1.08	1.1	0.866	1.09	0.865	0.977	0.74	0.823	1.08	0.881	0.644	0.444	0.332	0.371	0.31	0.255

Cell Line	relative viability ([1]; first compound 0.04 µM)	relative viability ([1]; first compound 0.1265 µM)	relative viability ([1]; first compound 0.4 µM)	relative viability ([1]; first compound 1.265 µM)	relative viability ([2]; first compound 0.04 µM)	relative viability ([2]; first compound 0.1265 µM)	relative viability ([2]; first compound 0.4 µM)	relative viability ([2]; first compound 1.265 µM)	relative viability ([3]; first compound 0.04 µM)	relative viability ([3]; first compound 0.1265 µM)	relative viability ([3]; first compound 0.4 µM)	relative viability ([3]; first compound 1.265 µM)	relative viability ([4]; first compound 0.04 µM)	relative viability ([4]; first compound 0.1265 µM)	relative viability ([4]; first compound 0.4 µM)	relative viability ([4]; first compound 1.265 µM)	relative viability ([5]; first compound 0.04 µM)	relative viability ([5]; first compound 0.1265 µM)	relative viability ([5]; first compound 0.4 µM)	relative viability ([5]; first compound 1.265 µM)
HCC-827	0.551	0.501	0.478	0.484	1.01	1.01	1.06	0.986	1.1	0.974	1.05	0.908	0.839	0.81	0.933	0.763	0.416	0.327	0.387	0.303
HOP-62	0.471	0.465	0.502	0.47	0.51	0.59	0.615	0.682	1.09	1.24	1.21	1.07	0.833	0.917	0.84	0.768	0.241	0.223	0.295	0.296
IA-LM					0.655	0.841	0.974	0.54	0.755	0.725	0.952	0.52								
LC-2-ad	0.476	0.493	0.408	0.483	1.11	1.01	1.06	0.968	0.503	0.448	0.467	0.213	0.841	0.767	0.867	0.658	0.777	0.835	0.74	0.611
LCLC-103H	0.441	0.511	0.529	0.445	1	1.1	1.15	0.911					0.476	0.528	0.488	0.501	0.714	0.656	0.863	0.631
LK-2	0.83	0.862	0.635	0.559					0.873	0.876	0.787	0.608	0.248	0.194	0.186	0.2	0.447	0.266	0.294	0.271
NCI-H358	0.132	0.134	0.131	0.107									0.761	0.796	0.666	0.513	0.351	0.236	0.339	0.183
NCI-H596					0.947	0.875	0.999	1.08	1.04	1.05	1.16	0.945	0.866	0.705	0.664	0.684	1.05	0.982	1.1	1.08
NCI-H650	0.346	0.343	0.319	0.312	0.792	0.761	1.06	0.432					0.527	0.556	0.559	0.391	0.458	0.299	0.458	0.357
NCI-H661	0.463	0.429	0.429	0.444	0.767	0.806	0.695	0.706					0.514	0.688	0.554	0.511	0.683	0.594	0.589	0.533
NCI-H1395	0.627	0.612	0.426	0.498					1.23	1.06	0.531	0.837	0.635	0.686	0.482	0.498	0.693	0.774	0.48	0.597
NCI-H1563					0.822	0.844	0.993	0.752					0.782	0.749	0.821	0.67				
NCI-H1793	0.386	0.246	0.384	0.296					0.575	0.362	0.39	0.272	0.34	0.292	0.329	0.241	0.589	0.443	0.674	0.374
NCI-H1944	0.381	0.33	0.411	0.325					1.14	1.11	1.07	0.953	0.51	0.459	0.488	0.381	0.471	0.497	0.534	0.408
NCI-H2170	0.364	0.395	0.394	0.381					0.674	0.62	0.659	0.53	0.725	0.643	0.791	0.674	0.542	0.47	0.48	0.443
NCI-H2228	1.07	0.787	0.974	0.658	1.03	1.11	0.907	0.308	0.894	0.811	0.857	0.486	0.483	0.641	0.471	0.265				
SK-MES-1	0.303	0.302	0.271	0.286					1.26	1.32	1.23	0.886	0.471	0.548	0.224	0.299	0.503	0.358	0.392	0.39
SW 900	0.512		0.67	0.593									0.679	0.521	0.487	0.423	0.543		0.622	0.485
